Data reported in article PMC11096480, “The road to evolution of ProTx2: how to be a subtype-specific inhibition of human Nav1.7” (Frontiers in Pharmacology, 2024).
“Also recorded” adds a separate entry of the source. Where no end group is shown, it is not given here.

Key:
[1] = target: human voltage-gated sodium channel Nav1.7, on CHO cells (human) (UniProt Q15858)
[2] = target: human voltage-gated sodium channel Nav1.4, on CHO cells (human) (UniProt P35499)
KM mice [3] = assay: formalin-induced paw-licking test; type: in vivo
Method: Male KM mice (18–22 g) were obtained from Liaoning Changsheng Biotechnology Co., Ltd. The mice were acclimated for 1 week at 18°C–22°C and 50%–70% humidity, following approval by the Animal Ethics Committee of Shenyang Pharmaceutical University, China. The pain response was assessed using a formalin-induced paw-licking test. The saline solution, 5 mg/kg morphine, commonly used analgesic medications in clinical practice, or 0.75 mg/kg peptides, ProTx II, and its mutants, were injected via the tail vein to relief the pain. After half an hour, a 20-μL 5% (v/v) formalin solution was administered as an activator to induce pain in mice (n = 10) ([Miranda et al., 2007]). The cumulative pain behavior that occurred 0–5 min (phase I, an immediate nociceptive phase) and 20–60 min (phase II, a later inflammatory phase) after injection was recorded for 60 min at 5 min intervals in individual cages to measure the total licking time in phases I and II, respectively.

hNav1.4 = assay: whole-cell patch clamp, CHO-Nav1.4 sodium current; type: cell-based, human
Method: (§1) Nav1.4-CHO cells and Nav1.7-CHO cells were maintained in Iscove’s modified Dulbecco’s medium (Gibco) supplemented with 10% (v/v) fetal bovine serum (FBS) and 200 μg/mL G418 (Sigma). All cells were cultured at 37 °C and 5% CO2 atmosphere. Mouse myoblasts C2C12, obtained from the Stem Cell Bank of The Chinese Academy of Sciences, were grown in Dulbecco’s modified Eagle‘s medium (DMEM) enriched with 10% heat-inactivated FBS, 2 mM L glutamine, 100 U/mL of penicillin, and 100 μg/mL of streptomycin. The C2C12 cells typically reached confluence in 3–5 days in 75-T flasks. For passaging, monolayers were treated with 0.25% trypsin for 3–5 min, rinsed twice with DMEM, and sub-cultured at a ratio of 1:4. Similarly, the Chinese hamster ovary (CHO) cells were cultured in IMDM medium supplemented with 10% fetal bovine serum, 1% penicillin/streptomycin, 100 μM hypoxanthine, and 16 μM thymidine. When 90% confluence was achieved, cells were separated by 0.25% trypsin EDTA, and patch clamp electrophysiology experiments were carried out.
(§2) Automatic electrophysiological platforms (NPC-1 and Port-a-Patch systems, […], Munich, Germany) and EPC10 amplifiers (HEKA Elektronik, Lambrecht, Germany) assessed the effects of recombinant ProTx2 and its mutants on CHO-Nav1.4 and CHO-Nav1.7. […]

KM mice [4] = assay: forced swimming test; type: in vivo
Method: Additionally, a forced swimming test measured endurance following 7 days of treatment with ProTx2 or its mutants ([Porsolt et al., 1977]; [Galeotti et al., 2002]; [Xu et al., 2017]). Fifty male KM mice were randomly divided into five groups with 10 mice in each group. The groups were classified as normal saline control, ProTx2, R13A, R13D, and K27Y.
Following a 7-day treatment regimen, mice received injections of ProTx2 or its mutants and underwent forced swimming tests 20 min after the final treatment.

hNav1.7 = assay: whole-cell patch clamp, CHO-Nav1.7 sodium current; type: cell-based, human
Method: as §1, §2

C2C12 cells = assay: C2C12 cell viability (CCK8 assay); type: cell-based, mouse; conditions: CCK8, 450 nm, 18-h exposure, 0-160 μg/mL, serum-free, n = 5; R13D effect particularly between 100 and 160 μg/mL; relative to wild-type peptide
Method: as §1
C2C12 cell viability in response to ProTx2 or it mutants was evaluated using the CCK8 assay ([Pan et al., 2019]; [Ge et al., 2020]). […] After 18 h of treatment, cell viability was assessed by measuring the absorbance at 450 nm, following the addition of the CCK-8 reagent.

UniProt Q15858, sequence (Q15858 whole entry): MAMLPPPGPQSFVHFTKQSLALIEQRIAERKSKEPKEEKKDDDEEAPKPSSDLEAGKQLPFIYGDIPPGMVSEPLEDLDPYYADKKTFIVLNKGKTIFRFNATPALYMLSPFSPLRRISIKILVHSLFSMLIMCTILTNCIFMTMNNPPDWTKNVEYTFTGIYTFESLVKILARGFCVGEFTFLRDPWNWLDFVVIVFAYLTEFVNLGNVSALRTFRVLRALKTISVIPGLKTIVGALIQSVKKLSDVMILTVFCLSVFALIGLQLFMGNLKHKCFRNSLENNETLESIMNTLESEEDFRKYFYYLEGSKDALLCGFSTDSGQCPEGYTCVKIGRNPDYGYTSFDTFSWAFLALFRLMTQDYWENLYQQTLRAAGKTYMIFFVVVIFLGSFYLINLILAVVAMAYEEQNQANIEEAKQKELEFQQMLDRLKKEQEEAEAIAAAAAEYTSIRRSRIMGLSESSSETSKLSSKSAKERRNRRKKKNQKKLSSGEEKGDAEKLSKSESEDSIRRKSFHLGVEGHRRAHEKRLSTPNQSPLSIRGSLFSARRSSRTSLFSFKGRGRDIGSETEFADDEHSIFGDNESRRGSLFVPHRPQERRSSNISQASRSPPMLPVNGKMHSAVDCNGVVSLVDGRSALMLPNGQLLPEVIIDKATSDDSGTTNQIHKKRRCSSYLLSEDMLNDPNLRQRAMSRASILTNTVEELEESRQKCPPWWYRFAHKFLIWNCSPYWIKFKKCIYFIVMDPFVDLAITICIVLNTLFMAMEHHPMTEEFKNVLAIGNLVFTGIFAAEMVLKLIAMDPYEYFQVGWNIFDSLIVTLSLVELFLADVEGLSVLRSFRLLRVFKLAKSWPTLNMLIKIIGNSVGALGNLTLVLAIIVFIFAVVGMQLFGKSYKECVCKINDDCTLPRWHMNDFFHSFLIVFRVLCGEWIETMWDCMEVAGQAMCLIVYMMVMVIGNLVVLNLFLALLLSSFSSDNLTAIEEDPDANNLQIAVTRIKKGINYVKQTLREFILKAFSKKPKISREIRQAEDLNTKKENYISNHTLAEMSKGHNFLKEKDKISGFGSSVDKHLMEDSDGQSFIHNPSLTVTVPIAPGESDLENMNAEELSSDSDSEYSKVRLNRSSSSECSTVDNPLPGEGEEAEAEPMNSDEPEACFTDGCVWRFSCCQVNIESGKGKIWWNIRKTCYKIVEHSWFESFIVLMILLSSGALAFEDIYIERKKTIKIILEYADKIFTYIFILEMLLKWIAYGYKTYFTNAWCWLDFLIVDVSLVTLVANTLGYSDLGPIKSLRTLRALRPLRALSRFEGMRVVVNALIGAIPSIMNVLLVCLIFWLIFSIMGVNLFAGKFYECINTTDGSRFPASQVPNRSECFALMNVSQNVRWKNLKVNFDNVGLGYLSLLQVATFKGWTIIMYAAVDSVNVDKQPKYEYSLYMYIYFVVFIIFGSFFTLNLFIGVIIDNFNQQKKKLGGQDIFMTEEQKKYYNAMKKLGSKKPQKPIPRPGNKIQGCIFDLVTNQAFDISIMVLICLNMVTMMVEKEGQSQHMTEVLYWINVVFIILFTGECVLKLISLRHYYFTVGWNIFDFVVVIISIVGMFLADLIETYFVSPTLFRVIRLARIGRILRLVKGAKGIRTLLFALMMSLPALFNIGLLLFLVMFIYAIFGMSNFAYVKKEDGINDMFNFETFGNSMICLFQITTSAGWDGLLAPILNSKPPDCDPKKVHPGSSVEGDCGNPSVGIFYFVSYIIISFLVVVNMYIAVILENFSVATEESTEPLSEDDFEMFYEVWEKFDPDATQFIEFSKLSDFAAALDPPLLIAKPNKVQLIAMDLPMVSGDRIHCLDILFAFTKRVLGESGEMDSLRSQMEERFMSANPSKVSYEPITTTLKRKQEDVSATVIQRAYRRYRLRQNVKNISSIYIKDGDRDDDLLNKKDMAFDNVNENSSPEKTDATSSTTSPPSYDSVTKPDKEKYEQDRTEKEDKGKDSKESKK
UniProt P35499, sequence (P35499 whole entry): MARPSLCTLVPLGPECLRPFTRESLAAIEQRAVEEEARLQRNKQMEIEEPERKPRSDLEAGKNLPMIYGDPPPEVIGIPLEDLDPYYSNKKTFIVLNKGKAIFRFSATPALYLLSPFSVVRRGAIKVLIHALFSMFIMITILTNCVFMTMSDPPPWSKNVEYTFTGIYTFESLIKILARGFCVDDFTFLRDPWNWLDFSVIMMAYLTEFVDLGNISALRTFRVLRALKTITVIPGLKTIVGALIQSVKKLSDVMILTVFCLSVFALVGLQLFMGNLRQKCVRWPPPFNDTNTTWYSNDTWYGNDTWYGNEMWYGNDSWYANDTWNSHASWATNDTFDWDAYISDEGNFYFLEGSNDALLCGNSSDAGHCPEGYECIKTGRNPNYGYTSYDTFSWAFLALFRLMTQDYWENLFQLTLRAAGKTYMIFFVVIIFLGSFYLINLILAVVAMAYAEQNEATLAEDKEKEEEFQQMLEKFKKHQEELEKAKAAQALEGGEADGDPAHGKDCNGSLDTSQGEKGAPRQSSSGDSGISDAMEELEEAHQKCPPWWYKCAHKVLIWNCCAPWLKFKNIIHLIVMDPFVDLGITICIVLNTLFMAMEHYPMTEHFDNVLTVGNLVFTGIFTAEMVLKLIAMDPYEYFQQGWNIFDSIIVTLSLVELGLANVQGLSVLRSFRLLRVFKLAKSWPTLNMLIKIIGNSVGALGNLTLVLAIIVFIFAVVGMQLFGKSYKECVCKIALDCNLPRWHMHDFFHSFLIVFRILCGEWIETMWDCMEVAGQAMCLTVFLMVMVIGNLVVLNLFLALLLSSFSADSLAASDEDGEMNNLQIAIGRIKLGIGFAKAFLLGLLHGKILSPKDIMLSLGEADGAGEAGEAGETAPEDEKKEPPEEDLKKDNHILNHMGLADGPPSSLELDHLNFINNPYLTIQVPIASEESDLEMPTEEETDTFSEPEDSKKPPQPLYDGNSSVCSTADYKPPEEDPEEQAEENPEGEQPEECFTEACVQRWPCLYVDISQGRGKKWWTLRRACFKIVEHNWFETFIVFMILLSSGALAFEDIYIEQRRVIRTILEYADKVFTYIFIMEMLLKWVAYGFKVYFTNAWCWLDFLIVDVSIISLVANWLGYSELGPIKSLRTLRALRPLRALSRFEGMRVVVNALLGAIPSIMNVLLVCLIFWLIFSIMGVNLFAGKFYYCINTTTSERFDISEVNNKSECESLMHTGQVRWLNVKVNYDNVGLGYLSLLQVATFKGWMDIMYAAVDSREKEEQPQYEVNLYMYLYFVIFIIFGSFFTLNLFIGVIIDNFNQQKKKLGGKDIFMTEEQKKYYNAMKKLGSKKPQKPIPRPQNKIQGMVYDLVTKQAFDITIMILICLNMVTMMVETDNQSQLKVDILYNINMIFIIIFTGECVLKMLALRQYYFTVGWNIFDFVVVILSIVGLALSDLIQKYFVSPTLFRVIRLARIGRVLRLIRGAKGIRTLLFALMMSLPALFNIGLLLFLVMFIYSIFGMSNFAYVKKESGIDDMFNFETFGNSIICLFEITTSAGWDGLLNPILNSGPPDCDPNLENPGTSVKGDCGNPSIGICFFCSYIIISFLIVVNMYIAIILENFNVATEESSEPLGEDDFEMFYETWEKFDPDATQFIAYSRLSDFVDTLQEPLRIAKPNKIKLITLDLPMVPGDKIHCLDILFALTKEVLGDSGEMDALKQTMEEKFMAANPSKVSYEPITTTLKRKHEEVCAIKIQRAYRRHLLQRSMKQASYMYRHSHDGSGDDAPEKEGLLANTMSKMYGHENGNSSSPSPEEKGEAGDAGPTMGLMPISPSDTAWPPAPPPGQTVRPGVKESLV

Compound “ProTx2 mutant R13D, recombinant (from UniProt P83476 1-30) (peptide)” has a peak sodium current amplitude (normalized) of hNav1.7-CHO cells, whole-cell patch clamp, peptide at 1 μM [1] of 68% and a peak sodium current amplitude (normalized) of hNav1.4-CHO cells, whole-cell patch clamp, peptide at 1 μM [2] of 59%.

With `CN1CC[C@]23c4c5ccc(O)c4O[C@H]2[C@@H](O)C=C[C@H]3[C@H]1C5` [morphine, reference compound] the “total licking time, phase I (morphine)” value (KM mice [3]; mouse, in vivo, 5 mg/kg) was 7.5 ± 1.6 s and the “total licking time, phase II (morphine)” value (KM mice [3]; mouse, in vivo, 5 mg/kg) was 42.1 ± 6.1 s.

Compound “ProTx2 (Protoxin-II), wild type, recombinant (from UniProt P83476 1-30) (peptide)” has a peak sodium current amplitude (normalized) of hNav1.7-CHO cells, whole-cell patch clamp, peptide at 1 μM [1] of 82% and a peak sodium current amplitude (normalized) of hNav1.4-CHO cells, whole-cell patch clamp, peptide at 1 μM [2] of 50%.

In the case of “R13D: single-point mutation (R13D) in ProTx2 (YCQKWMWTCDSEDKCCEGMVCRLWCKKKLW; ends and bridges not checked; cysteine pairing not given here)”, the “peak sodium current amplitude, hNav1.4” value (hNav1.4; 1 μM, normalized Na+ peak current at −30 mV, CHO cells, whole-cell, holding −80 mV, 22°C, 10 cells per set) is reported as 59%, the “inhibition of hNav1.4 current” value (hNav1.4; CHO-Nav1.4, whole-cell, relative to ProTx2 for R13D) is reported as “marginally diminished effect on hNav1.4” and the “swimming endurance / muscular toxicity” value (KM mice [4]; 7-day treatment, test 20 min after final treatment, male KM mice, n = 10, versus wild-type ProTx2) is reported as “significantly prolonged endurance compared to the wild-type ProTx2 group, suggesting reduced muscular toxicity (p < 0.05)”. For the same compound, the “muscle toxicity” value (KM mice [4]; summary in abstract, compared with ProTx2) was “dramatically reducing its muscle toxicity compared with ProTx2”, the “peak sodium current amplitude, hNav1.7” value (hNav1.7; 1 μM, normalized Na+ peak current at −30 mV, CHO cells, whole-cell, holding −80 mV, 22°C, 10 cells per set, R13D vs ProTx2 p < 0.01) was 68% and the “inhibition of hNav1.7 current” value (hNav1.7; CHO-Nav1.7, whole-cell, relative to ProTx2 for R13D) was “pronouncedly intensified inhibition of hNav1.7”. For the same compound, the “C2C12 cellular viability” value (C2C12 cells) was “significantly improved cellular viability in a concentration-dependent manner, particularly between 100 and 160 μg/mL”, the “analgesic effect” value (KM mice [3]; formalin model, 0.75 mg/kg peptide, tail vein, versus wild-type ProTx2, 0.75 mg/kg) was “maintained the analgesic effect in mice; also recorded: significantly alleviated pain in both the acute and inflammatory phases, outperforming the wild-type ProTx2” and the “total licking time, phase I” value (KM mice [3]; phase I (0–5 min), 0.75 mg/kg peptide, tail vein, half an hour before 20 μL 5% formalin, male KM mice, n = 10) was 33.5 ± 1.6 s. For the same compound, the “total licking time, phase II” value (KM mice [3]; phase II (20–60 min), 0.75 mg/kg peptide, tail vein, half an hour before 20 μL 5% formalin, male KM mice, n = 10) was 128.0 ± 5.2 s.
